PMC5618426, “APETx4, a Novel Sea Anemone Toxin and a Modulator of the Cancer-Relevant Potassium Channel KV10.1” (Marine Drugs, 2017)

Tests used:
hERG = conditions: cited from earlier work
KV10.1 = KV10.1 inhibition by related toxins (unpublished data); assay type: cell-based
ASIC3 = conditions: cited from earlier work
KV2.1 = conditions: ref [46]; cited from earlier work
From the text: APETx1 is proposed to bind to the voltage sensor paddle of hERG. In particular, the negative charge of E518 is expected to form an electrostatic interaction with the toxin [44]. Several other kinds of gating modifier toxins also bind to the extracellular exposed part of the S3–S4 domain. More precisely by binding to a glutamic acid residue and several hydrophobic amino acid residues. An example of these toxins is Hanatoxin (HaTx1) from the tarantula Grammostola spatulata.

In the case of `COc1ccc(CCN2CCC(Nc3nc4ccccc4n3Cc3ccc(F)cc3)CC2)cc1` [astemizole], the “block of hERG (KV11.1)” value (hERG) is listed as “block the cardiac human Eag-related gene (hERG, KV11.1)”.

In the case of APETx2, the “effect on KV10.1” value (KV10.1) is listed as “no effect on KV10.1”, the IC50 (ASIC3) is listed as about 63 nM and the IC50 (hERG) is listed as about 1200 nM.

For “HaTx1: toxin from the tarantula Grammostola spatulata (ECRYLFGGCKTTSDCCKHLGCKFRDKYCAWDFTFS; UniProt P56852 50-84, looked up)”, the “gating modification of KV2.1” value (KV2.1) is given as “modifies the channel gating of KV2.1”.
